According to patent US10131663B2, “Chemical compounds” (AstraZeneca AB, priority 2016, dated 2018):
≈ marks a conversion by molar mass, not a printed value.

Columns and labels:
[1] = log D (shake flask, 1-octanol/aqueous buffer); type: physicochemical
Text: The lipophilicity of a drug is an important physical property which may influence many biological and metabolic properties of a compound, for example the absorption, distribution, metabolism, excretion and toxicity profiles of a compound. The distribution coefficient between 1-octanol and aqueous buffer, Log DO/W, at pH 7.4, is the most commonly used measurement of the lipophilicity of a compound. The current method for measurement of Log DO/W is based on the traditional shake flask technique, but with the modification of measuring compounds in mixtures of ten at a time using UPLC with quantitative mass spectrometry (MS) as a method to measure the relative octanol and aqueous concentrations. […] An additional QC sample Caffeine, with low Log D, are used and randomly placed in all runs. The method has been thoroughly validated against the previous shake flask methodologies.

[2] = Thermodynamic solubility (shake-flask); type: physicochemical; settings: aqueous phosphate buffer pH 7.4, 24 hours
Protocol: The thermodynamic solubility of a research compound is measured under standard conditions. It is a shake-flask approach that uses 10 mM DMSO solutions which are supplied from the Compound Managements liquid store and is a high throughput method. The dried compounds are equilibrated in an aqueous phosphate buffer (pH 7.4) for 24 hours at 25° C., the portion with the dissolved compound is then separated from the remains. The solutions are analyzed and quantified using UPLC/MS/MS, QC-samples are incorporated in each assay-run to ensure the quality of the assay.

[3] = Human plasma protein binding (equilibrium dialysis); type: in vitro ADME; settings: dialysis 18 hours
Protocol: The automated equilibrium dialysis assay in human plasma uses the RED (Rapid Equilibrium Dialysis) Device and sample handling. The assay generally runs over two to three days including delivery of results. After dialysis for 18 hours, plasma and buffer samples are prepared for analysis by liquid chromatography and mass spectrometry. Samples are generally tested in singlicates and quantified by LC/MSMS by using a 7-point calibration curve in plasma. The compounds are pooled together in plasma pools up to 10 compounds. Three reference compounds are used in each run, Propranolol, Metoprolol and Warfarin. Warfarin is used as a control in each pool and Propranolol and Metoprolol are placed randomly in each run. An in-house Excel macro is used for preparation of files for the robot and the mass spectrometer and is also used for the calculations of fraction unbound (fu %) in plasma.

[4] = target: recombinant human Estrogen Receptor alpha ligand binding domain (ER alpha-LBD (GST)) (Homo sapiens (Human), UniProt P03372); test: ERα binding assay (LanthaScreen TR-FRET competition); settings: TR-FRET, displacement of Fluormone ES2
Sequence of recombinant human Estrogen Receptor alpha ligand binding domain (ER alpha-LBD (GST)) (P03372 307-554): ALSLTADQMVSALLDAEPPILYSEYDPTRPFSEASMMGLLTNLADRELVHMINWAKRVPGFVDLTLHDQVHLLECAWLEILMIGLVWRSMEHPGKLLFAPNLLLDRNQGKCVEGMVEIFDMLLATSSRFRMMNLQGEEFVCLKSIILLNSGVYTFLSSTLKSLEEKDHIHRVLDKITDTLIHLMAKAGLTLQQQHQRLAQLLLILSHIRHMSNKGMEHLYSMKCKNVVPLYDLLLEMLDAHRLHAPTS
Protocol: The ability of compounds to bind to isolated Estrogen Receptor Alpha Ligand binding domain (ER alpha-LBD (GST)) was assessed in competition assays using a LanthaScreen™ Time-Resolved Fluorescence Resonance Energy Transfer (TR-FRET) detection end-point. […] The assay principle is that ER alpha-LBD (GST) is added to a fluorescent ligand to form a receptor/fluorophore complex. A terbium-labelled anti-GST antibody (Product code PV3551) is used to indirectly label the receptor by binding to its GST tag, and competitive binding is detected by a test compound's ability to displace the fluorescent ligand, resulting in a loss of TR-FRET signal between the Tb-anti-GST antibody and the tracer. The assay was performed as follows with all reagent additions carried out using the Beckman Coulter BioRAPTR FRD microfluidic workstation: • 1. Acoustic dispense 120 nL of the test compound into a black low volume 384 well assay plates. • 2. Prepare 1×ER alpha-LBD/Tb-antiGST Ab in ES2 screening buffer and incubate for 15 minutes. • 3. Dispense 6 μL of the 1×[…]/Tb-anti-GST Ab reagent into each well of the assay plate followed by 6 μL of Fluorophore reagent into each well of the assay plate • 4. Cover the assay plate to protect the reagents from light and evaporation, and incubate at room temperature for 4 hours. • 5.
TR-FRET dose response data obtained with each compound was exported into a suitable software package (such as Origin or Genedata) to perform curve fitting analysis. Competitive ER alpha binding was expressed as an IC50 value.

[5] = target: Estrogen Receptor (ERα) in MCF-7 cells (Homo sapiens (Human), UniProt P03372); test: MCF-7 ER down-regulation assay (immuno-fluorescence); type: cell-based
Sequence of Estrogen Receptor (ERα) in MCF-7 cells (P03372 whole entry): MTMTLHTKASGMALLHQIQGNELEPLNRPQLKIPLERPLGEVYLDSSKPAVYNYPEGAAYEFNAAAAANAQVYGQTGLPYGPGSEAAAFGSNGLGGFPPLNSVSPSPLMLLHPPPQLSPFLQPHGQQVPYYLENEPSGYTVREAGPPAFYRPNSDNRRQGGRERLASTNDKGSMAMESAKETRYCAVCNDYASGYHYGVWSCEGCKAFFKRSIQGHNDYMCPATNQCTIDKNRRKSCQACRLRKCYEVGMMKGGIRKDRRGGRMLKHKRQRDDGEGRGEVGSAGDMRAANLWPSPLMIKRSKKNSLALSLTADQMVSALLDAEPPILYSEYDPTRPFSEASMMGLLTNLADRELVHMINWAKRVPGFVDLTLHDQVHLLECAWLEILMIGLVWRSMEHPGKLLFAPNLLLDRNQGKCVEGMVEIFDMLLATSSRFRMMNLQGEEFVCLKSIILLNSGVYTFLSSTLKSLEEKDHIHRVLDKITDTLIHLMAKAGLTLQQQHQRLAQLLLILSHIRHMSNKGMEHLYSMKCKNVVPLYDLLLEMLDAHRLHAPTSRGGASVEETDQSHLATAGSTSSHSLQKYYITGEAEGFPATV
Protocol: The Echo uses acoustic technology to perform direct microplate-to-microplate transfers of DMSO compound solutions to assay plates. […] Cells were fixed at room temperature for 20 mins before being washed two times with 250 μL PBS/Proclin (PBS with a Biocide preservative) using a BioTek platewasher, 40 μL of PBS/Proclin was then added to all wells and the plates stored at 4° C. The fixing method described above was carried out on the Integrated Echo 2 workcell. Immunostaining was performed using an automated AutoElisa workcell. […] The plates were incubated overnight at 4° C. […] The mean total intensity was normalized for cell number giving the total intensity per cell. The data was exported into a suitable software package (such as Origin) to perform curve fitting analysis.

[6] = 1-octanol/aqueous buffer, pH 7.4, pH 7.4, 1-octanol/aqueous buffer
[7] = aqueous phosphate buffer, 25 °C, pH 7.4, aqueous buffer, thermodynamic from solid
[8] = pH 7.4, 1-octanol/aqueous buffer

With `COCC(C)(F)CN1[C@H](c2ccc(NC3CN(CCCF)C3)cc2OC)c2ccc3[nH]ncc3c2C[C@H]1C` (stereo partly drawn) [Example 4, N-(4-((6S,8R)-7-(2-fluoro-3-methoxy-2-methylpropyl)-8-methyl-6,7,8,9-tetrahydro-3H-pyrazolo[4,3-f]isoquinolin-6-yl)-3-methoxyphenyl)-1-(3-fluoropropyl)azetidin-3-amine] the logD [1, 6] was 2.7, the solubility at 24 h [2, 7] was 991 µM (≈ 523 µg/mL) and the “Human plasma protein binding (% free)” value [3] was 21 % free.
For `COc1cc(NC2CN(CCCF)C2)ccc1[C@@H]1c2ccc3[nH]ncc3c2C[C@@H](C)N1CC1(CF)COC1` [Example 10, N-(4-((6S,8R)-7-((3-(fluoromethyl)oxetan-3-yl)methyl)-8-methyl-6,7,8,9-tetrahydro-3H-pyrazolo[4,3-f]isoquinolin-6-yl)-3-methoxyphenyl)-1-(3-fluoropropyl)azetidin-3-amine], the IC50 [4] was 8 nM, the IC50 [5] was 0.26 nM and the logD [1, 6] was 2.8. The solubility at 24 h [2, 7] was 634 µM (≈ 333 µg/mL) and the “Human plasma protein binding (% free)” value [3] was 23 % free.
In the case of `COc1cc(NC2CN(CCCF)C2)cnc1[C@@H]1c2ccc3[nH]ncc3c2C[C@@H](C)N1CC(F)(F)F` [Example 37, N-(1-(3-fluoropropyl)azetidin-3-yl)-5-methoxy-6-((6S,8R)-8-methyl-7-(2,2,2-trifluoroethyl)-6,7,8,9-tetrahydro-3H-pyrazolo[4,3-f]isoquinolin-6-yl)pyridin-3-amine], the logD [1, 6] is reported as 2.6, the solubility at 24 h [2, 7] is reported as 961 µM (≈ 487 µg/mL) and the “Human plasma protein binding (% free)” value [3] is reported as 25 % free.
In the case of `COc1cc(NC2CN(CCCF)C2)ccc1[C@@H]1c2ccc3[nH]ncc3c2C[C@@H](C)N1CC(C)F` (single isomer, unassigned) [Example 68], the “LogD pH 7.4” value [1, 8] is reported as 2.4, the solubility at 24 h ([2]; 25° C.) is reported as 561 µM (≈ 271 µg/mL) and the “Human plasma protein binding (% free)” value [3] is reported as 37 % free.
For `CC1(C)Cc2c(ccc3[nH]ncc23)[C@@H](c2ccc(NC3CN(CCCF)C3)cn2)N1CC(F)(F)F` [Example 72, (S)-6-(8,8-dimethyl-7-(2,2,2-trifluoroethyl)-6,7,8,9-tetrahydro-3H-pyrazolo[4,3-f]isoquinolin-6-yl)-N-(1-(3-fluoropropyl)azetidin-3-yl)pyridin-3-amine], the logD [1, 8] was 3.3, the solubility at 24 h [2, 7] was 738 µM (≈ 362 µg/mL) and the “Human plasma protein binding (% free)” value [3] was 14 % free.
With `COC[C@](C)(F)CN1[C@H](c2ccc(OC3CN(CCCF)C3)cc2OC)c2ccc3[nH]ncc3c2C[C@H]1C` (single isomer, unassigned) [Example 13] the “LogD pH 7.4” value [1, 8] was 4, the solubility at 24 h ([2]; 25° C.) was 78 µM (≈ 41.2 µg/mL) and the “Human plasma protein binding (% free)” value [3] was 6.4 % free.
For `COc1cc(NC2CN(CCCF)C2)ccc1[C@@H]1c2ccc3[nH]ncc3c2C[C@@H](C)N1CC(C)F` (single isomer, unassigned) [Example 67], the logD [1, 6] was 2.7, the solubility at 24 h [2, 7] was 914 µM (≈ 442 µg/mL) and the “Human plasma protein binding (% free)” value [3] was 19 % free.
With `C[C@@H]1Cc2c(ccc3[nH]ncc23)[C@@H](c2ccc(NC3CN(CCCF)C3)cn2)N1CC(C)(F)F` [Example 70, 6-((6S,8R)-7-(2,2-difluoropropyl)-8-methyl-6,7,8,9-tetrahydro-3H-pyrazolo[4,3-f]isoquinolin-6-yl)-N-(1-(3-fluoropropyl)azetidin-3-yl)pyridin-3-amine] the logD [1, 8] was 2.9, the solubility at 24 h [2, 7] was 857 µM (≈ 405 µg/mL) and the “Human plasma protein binding (% free)” value [3] was 24 % free.
In the case of `C[C@@H]1Cc2c(ccc3[nH]ncc23)[C@@H](c2ccc(N(C)C3CN(CCCF)C3)cn2)N1CC(F)F` [Example 43, 6-((6S,8R)-7-(2,2-difluoroethyl)-8-methyl-6,7,8,9-tetrahydro-3H-pyrazolo[4,3-f]isoquinolin-6-yl)-N-(1-(3-fluoropropyl)azetidin-3-yl)-N-methylpyridin-3-amine], the IC50 [4] is reported as 4.1 nM and the IC50 [5] is reported as 0.25 nM.
For `FCCCN1CC(Nc2ccc([C@@H]3c4ccc5[nH]ncc5c4C[C@@H](C(F)F)N3CC(F)F)nc2)C1` [Example 51, 6-((6S,8S)-7-(2,2-difluoroethyl)-8-(difluoromethyl)-6,7,8,9-tetrahydro-3H-pyrazolo[4,3-f]isoquinolin-6-yl)-N-(1-(3-fluoropropyl)azetidin-3-yl)pyridin-3-amine], the logD [1, 8] was 2.7, the solubility at 24 h [2, 7] was over 1000 µM and the “Human plasma protein binding (% free)” value [3] was 28 % free.
For `C[C@@H]1Cc2c(ccc3[nH]ncc23)[C@@H](c2ccc(NC3CN(CCCF)C3)nc2)N1CC1(F)CC1` [Example 54, 5-((6S,8R)-7-((1-fluorocyclopropyl)methyl)-8-methyl-6,7,8,9-tetrahydro-3H-pyrazolo[4,3-f]isoquinolin-6-yl)-N-(1-(3-fluoropropyl)azetidin-3-yl)pyridin-2-amine], the logD [1, 6] was 1.4, the solubility at 24 h [2, 7] was over 1000 µM and the “Human plasma protein binding (% free)” value [3] was 57 % free.
`C[C@@H]1Cc2c(ccc3[nH]ncc23)[C@@H](c2ncc(NC3CN(CCCF)C3)cc2F)N1CC(F)(F)CF` [Example 71, 5-fluoro-N-(1-(3-fluoropropyl)azetidin-3-yl)-6-((6S,8R)-8-methyl-7-(2,2,3-trifluoropropyl)-6,7,8,9-tetrahydro-3H-pyrazolo[4,3-f]isoquinolin-6-yl)pyridin-3-amine] gave a logD [1, 8] of 3.2 and a solubility at 24 h [2, 7] of 666 µM (≈ 339 µg/mL).
With `COC[C@](C)(F)CN1[C@H](c2ccc(NC3CN(CCCF)C3)cc2OC)c2ccc3[nH]ncc3c2C[C@H]1C` (single isomer, unassigned) [Example 15] the “LogD pH 7.4” value [1, 8] was 2.5, the solubility at 24 h ([2]; 25° C.) was 821 µM (≈ 433 µg/mL) and the “Human plasma protein binding (% free)” value [3] was 34 % free.
In the case of `C[C@@H]1Cc2c(ccc3[nH]ncc23)[C@@H](c2ccc(NC3CN(CCCF)C3)cn2)N1CC(C)(C)F` [Example 63, 6-((6S,8R)-7-(2-fluoro-2-methylpropyl)-8-methyl-6,7,8,9-tetrahydro-3H-pyrazolo[4,3-f]isoquinolin-6-yl)-N-(1-(3-fluoropropyl)azetidin-3-yl)pyridin-3-amine], the logD [1, 8] is reported as 3.2, the solubility at 24 h [2, 7] is reported as 870 µM (≈ 408 µg/mL) and the “Human plasma protein binding (% free)” value [3] is reported as 10 % free.
For `CC(F)CN1[C@H](c2ccc(NC3CN(CCCF)C3)cn2)c2ccc3[nH]ncc3c2C[C@H]1C` (single isomer, unassigned) [Example 66], the “LogD pH 7.4” value [1, 8] was 2.3 and the solubility at 24 h ([2]; 25° C.) was 931 µM (≈ 423 µg/mL).
For `CC(F)CN1[C@H](c2ccc(NC3CN(CCCF)C3)cn2)c2ccc3[nH]ncc3c2C[C@H]1C` (single isomer, unassigned) [Example 65], the logD [1, 6] was 2.4 and the solubility at 24 h [2, 7] was 790 µM (≈ 359 µg/mL).
With `COC[C@](C)(F)CN1[C@H](c2ccc(OC3CN(CCCF)C3)cc2OC)c2ccc3[nH]ncc3c2C[C@H]1C` (single isomer, unassigned) [Example 12] the logD [1, 6] was 3.9, the solubility at 24 h [2, 7] was 77 µM (≈ 40.7 µg/mL) and the “Human plasma protein binding (% free)” value [3] was 2.7 % free.
With `C[C@@H]1Cc2c(ccc3[nH]ncc23)[C@@H](c2c(F)cc(NC3CN(CCCF)C3)cc2F)N1CC(C)(F)CO` (single isomer, unassigned) [Example 24] the IC50 [4] was 10 nM and the DC50 ([5]; read-out: ER down regulation IC50 value) was 0.21 nM.
With `COC[C@](C)(F)CN1[C@H](c2ccc(NC3CN(CCCF)C3)cc2OC)c2ccc3[nH]ncc3c2C[C@H]1C` (single isomer, unassigned) [Example 14] the logD [1, 6] was 2.6, the solubility at 24 h [2, 7] was 897 µM (≈ 473 µg/mL) and the “Human plasma protein binding (% free)” value [3] was 16 % free.
